ChEMBL document CHEMBL1142372, “Design, synthesis, and structure-activity relationship studies of 4-quinolinyl- and 9-acrydinylhydrazones as potent antimalarial agents” (J Med Chem, 2008)
Calls of active or inactive are those of the source. The calls are words filed in the database; no cut-off is given here.

Assays:
[1] = test system: Plasmodium falciparum; experiment: Antiplasmodial activity against chloroquine-sensitive Plasmodium falciparum D10 by [3H]hypoxanthine incorporation; assay type: functional, organism-based
[2] = test system: Plasmodium falciparum; experiment: Antiplasmodial activity against chloroquine-resistant Plasmodium falciparum W2 by [3H]hypoxanthine incorporation; assay type: functional, organism-based
[3] = test system: Plasmodium falciparum; experiment: Antiplasmodial activity against chloroquine-resistant Plasmodium falciparum K1 by [3H]hypoxanthine incorporation; assay type: functional, organism-based
[4] = test system: Plasmodium falciparum; experiment: Antiplasmodial activity against chloroquine-sensitive Plasmodium falciparum 3D7 by [3H]hypoxanthine incorporation; assay type: functional, organism-based
[5] = test system: KB; experiment: Cytotoxicity against human KB cells; assay type: functional; conditions: read-out: ED50 (the source's name)
[6] = test system: Plasmodium berghei; experiment: Antimalarial activity against Plasmodium berghei ANKA infected BALB/c mice (Mus musculus) as reduced parasitaemia at 30 mg/kg intraperitoneal dose after 4 days; assay type: functional; design: scale not given: the % may be the effect or the level left
[7] = test system: Mus musculus; experiment: Survival of Plasmodium Berghei ANKA infected BALB/c mice (Mus musculus) at 10 mg/kg, intraperitoneally; assay type: functional, organism-based; design: dose 10 mg/kg
[8] = molecular target: T1, Histidine-rich protein PFHRP-II (Plasmodium falciparum) (UniProt P05227); experiment: Inhibition of beta-hematin formation by BHIA; assay type: functional
T1 sequence (whole entry): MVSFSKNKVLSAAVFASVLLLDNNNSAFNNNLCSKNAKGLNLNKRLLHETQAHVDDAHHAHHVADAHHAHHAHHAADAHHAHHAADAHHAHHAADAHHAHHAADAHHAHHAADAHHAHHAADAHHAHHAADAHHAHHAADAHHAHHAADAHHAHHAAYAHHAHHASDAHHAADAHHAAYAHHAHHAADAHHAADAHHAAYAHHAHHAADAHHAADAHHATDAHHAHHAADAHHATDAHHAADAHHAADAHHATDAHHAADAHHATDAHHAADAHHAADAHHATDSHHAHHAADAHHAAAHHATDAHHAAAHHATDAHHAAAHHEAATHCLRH

[9] = test system: Plasmodium berghei; experiment: Reduced parasitemia in Plasmodium berghei ANKA infected BALB/c mice (Mus musculus) at 10 mg/kg intraperitoneal dose after 4 days; assay type: functional; design: scale not given: the % may be the effect or the level left
[10] = test system: Mus musculus; experiment: Survival of Plasmodium Berghei ANKA infected BALB/c mice (Mus musculus) at 30 mg/kg, intraperitoneally; assay type: functional, organism-based; design: dose 30 mg/kg

Structure (SMILES)	IC50 [1]	IC50 [2]	IC50 [3]	IC50 [4]	EC50 [5]	Activity [6]	Activity [7]	Activity [8]	Activity [9]	Activity [10]
CCOc1ccc2c(N/N=C/c3ccc(OC)cc3)cc(C)nc2c1	212 nM	232 nM	537 nM	805 nM	–	–	–	–	–	–
COc1cc2ccccc2cc1/C=N/Nc1ccnc2cc(Cl)ccc12	145 nM	169 nM	63.7 nM	31.8 nM	–	–	–	–	–	–
Clc1ccc2c(N/N=C/c3cccnc3)ccnc2c1	607 nM	814 nM	–	–	–	–	–	–	–	–
COc1cccc2c(N/N=C/c3ccc4ccccc4n3)cc(C)nc12	404 nM	324 nM	117 nM	789 nM	–	–	–	–	–	–
CCN(CC)c1ccc(/C=N/Nc2ccnc3c(OC)cccc23)cc1	442 nM	791 nM	125 nM	206 nM	–	–	–	–	–	–
Clc1ccc2c(N/N=C/c3ccc4c(c3)OCO4)ccnc2c1	184 nM	203 nM	30.7 nM	400 nM	–	–	–	–	–	–
COc1ccc2nccc(N/N=C/c3ccc(N4CCCC4)cc3)c2c1	115 nM	185 nM	462 nM	404 nM	–	–	–	–	–	–
Cn1cncc1/C=N/Nc1ccnc2cc(Cl)ccc12	174 nM	249 nM	385 nM	48.9 nM	73800 nM	–	–	–	–	–
Cc1cccc(/C=N/Nc2ccnc3cc(Cl)ccc23)n1	> 3000 nM	760 nM	–	–	–	–	–	–	–	–
COc1ccc(/C=N/Nc2c3c(nc4cc(Cl)ccc24)CCCC3)cc1	760 nM	1330 nM	2640 nM	930 nM	–	–	–	–	–	–
COc1ccc(/C=N/Nc2ccnc3ccc(OC)cc23)cc1	–	–	–	65.1 nM	–	38%	–	–	–	–
O=C(NNc1ccnc2cc(Cl)ccc12)c1ncc[nH]1	6470 nM	> 10000 nM	> 10000 nM	5460 nM	–	–	–	–	–	–
CCN(CC)c1ccc(/C=N/Nc2c3c(nc4ccccc24)CCCC3)cc1	986 nM	1470 nM	–	1080 nM	–	–	–	–	–	–
COc1ccc(/C=N/Nc2ccnc3c(OC)cccc23)cc1	715 nM	903 nM	769 nM	326 nM	–	–	–	–	–	–
COc1ccc2c(N/N=C/c3ccc4ccccc4n3)ccnc2c1	108 nM	140 nM	213 nM	–	–	–	–	–	–	–
Cc1cc(N/N=C/c2ccc3c(c2)OCO3)c2ccc(Cl)cc2n1	122 nM	281 nM	–	–	–	–	–	–	–	–
CN(C)c1ccc(/C=N/Nc2ccnc3cc(Cl)ccc23)cc1	325 nM	383 nM	1140 nM	308 nM	–	–	–	–	–	–
O=S(=O)(NNc1ccnc2cc(Cl)ccc12)c1cccc2ccccc12	4270 nM	2530 nM	599 nM	2160 nM	–	–	–	–	–	–
Clc1ccc2c(N/N=C/c3cnc[nH]3)ccnc2c1	453 nM	140 nM	626 nM	152 nM	29100 nM	–	–	–	–	–
C(=N\Nc1ccnc2cc3c(cc12)OCO3)/c1ccc(CN2CCCC2)cc1	35.6 nM	46.5 nM	58 nM	26.7 nM	–	–	–	–	–	–
CCN(CC)CCCC(C)Nc1ccnc2cc(Cl)ccc12 (configuration not stated) [CHLOROQUINE]	–	–	–	–	260000 nM	–	Active	Dose-dependent effect	98%	–
Cc1noc(C)c1/C=N/Nc1ccnc2cc(Cl)ccc12	347 nM	509 nM	2130 nM	125 nM	171000 nM	–	–	–	–	–
COc1ccc(/C=N/Nc2cc(C)nc3ccc(OC)cc23)cc1	103 nM	150 nM	62.3 nM	31.1 nM	–	–	–	–	–	–
Cc1ccc(S(=O)(=O)NNc2ccnc3cc(Cl)ccc23)cc1	5840 nM	5060 nM	8460 nM	3020 nM	–	–	–	–	–	–

Structure (SMILES)	IC50 [1]	IC50 [2]	IC50 [3]	IC50 [4]	EC50 [5]	Activity [6]	Activity [7]	Activity [8]	Activity [9]	Activity [10]
COc1ccc2nccc(N/N=C/c3ccc4ccccc4n3)c2c1	73 nM	96 nM	159 nM	125 nM	–	–	–	–	–	–
COc1ccc2nccc(N/N=C/c3ccc4c(c3)OCO4)c2c1	132 nM	197 nM	–	–	–	–	–	–	–	–
C(=N\Nc1c2c(nc3ccccc13)CCCC2)/c1ccc2c(c1)OCO2	618 nM	923 nM	–	–	–	–	–	–	–	–
CCN(CC)c1ccc(/C=N/Nc2ccnc3cc(Cl)ccc23)cc1	175 nM	250 nM	–	300 nM	–	–	–	–	–	–
CCN(CC)c1ccc(/C=N/Nc2ccnc3ccc(OC)cc23)cc1	142 nM	166 nM	172 nM	22.9 nM	–	–	–	–	–	–
Clc1ccc2c(N/N=C/c3ccc[nH]3)ccnc2c1	210 nM	256 nM	53.1 nM	25.8 nM	4800 nM	–	–	–	–	–
Clc1ccc2c(N/N=C/c3ccncc3)ccnc2c1	570 nM	627 nM	–	–	–	–	–	–	–	–
Clc1ccc2c(N/N=C/c3ncc[nH]3)ccnc2c1	65.2 nM	23.7 nM	31.6 nM	5.9 nM	19500 nM	–	–	Dose-dependent effect	–	–
CCN(CC)Cc1ccc(/C=N/Nc2ccnc3cc(Cl)ccc23)cc1	48.3 nM	57.7 nM	27.2 nM	2.7 nM	–	–	–	–	–	–
Oc1cc(/C=N/Nc2ccnc3cc(Cl)ccc23)ccc1CN1CCCC1	21.4 nM	18.9 nM	39.6 nM	0.9 nM	152000 nM	71%	–	–	–	Active
Cc1cccc(/C=N/Nc2cc(C)nc3cc(Cl)ccc23)n1	1160 nM	1310 nM	–	–	–	–	–	–	–	–
COc1ccc2nc3cc(Cl)ccc3c(N/N=C/c3ccc(CN4CCCC4)cc3)c2c1	–	–	–	–	–	19%	–	–	–	Active
FC(F)(F)c1ccc(-c2n[nH]cc2/C=N/Nc2ccnc3cc(Cl)ccc23)cc1	186 nM	258 nM	39.6 nM	5 nM	1200 nM	–	–	Dose-dependent effect	–	–
COc1ccc2nc3cc(Cl)ccc3c(N/N=C/c3ncc[nH]3)c2c1	–	–	–	–	5100 nM	40%	–	–	–	Active
Clc1ccc2c(N/N=C/c3ccc(CN4CCCC4)cc3)ccnc2c1	–	–	–	–	19500 nM	83%	–	Dose-dependent effect	–	Active
COc1cccc(/C=N/Nc2cc(C)nc3cc4c(cc23)OCO4)c1	197 nM	229 nM	–	4980 nM	–	–	–	–	–	–
Clc1ccc2c(N/N=C/c3cccs3)ccnc2c1	504 nM	855 nM	577 nM	167 nM	10400 nM	–	–	–	–	–
COc1ccc(/C=N/Nc2c3c(nc4ccccc24)CCCC3)cc1	942 nM	2360 nM	–	–	–	–	–	–	–	–
COc1ccc2nccc(N/N=C/c3ccc(CN4CCCC4)cc3)c2c1	24.8 nM	99.4 nM	86.1 nM	16.7 nM	–	–	–	–	–	–
Clc1ccc2c(N/N=C/c3ccc(N4CCCC4)cc3)ccnc2c1	189 nM	190 nM	427 nM	855 nM	–	–	–	–	–	–
COc1ccc2nc(C)cc(N/N=C/c3ccc4c(c3)OCO4)c2c1	132 nM	184 nM	149 nM	507 nM	–	–	–	–	–	–
Clc1ccc2c(N/N=C/c3ccco3)ccnc2c1	949 nM	1390 nM	824 nM	169 nM	19900 nM	–	–	Dose-dependent effect	–	–
O=C(NNc1ccnc2cc(Cl)ccc12)c1c[nH]cn1	> 10000 nM	> 10000 nM	> 10000 nM	8830 nM	–	–	–	–	–	–
Cn1ccnc1/C=N/Nc1ccnc2cc(Cl)ccc12	197 nM	86.9 nM	270 nM	61.5 nM	17100 nM	–	–	–	–	–
